PubChem BioAssay (NCI)
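These data come from cells grown in 96-well plates and exposed to compound for 48 hours at five concentrations. GI50: concentration for 50% inhibition of growth. TGI: total growth inhibition.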

Tests used:
Assay in all cases: NCI anticancer screen, dose series, 48 h
RXF 393 renal = test system: RXF 393 renal
MOLT-4 leukemia = test system: MOLT-4 leukemia
LOX IMVI melanoma = test system: LOX IMVI melanoma
SW-620 colon = test system: SW-620 colon
NCI-H23 lung = test system: NCI-H23 lung
SNB-19 CNS = test system: SNB-19 CNS
OVCAR-4 ovarian = test system: OVCAR-4 ovarian
HOP-92 NSCLC = test system: HOP-92 NSCLC
MCF7 breast = test system: MCF7 breast
SK-MEL-5 melanoma = test system: SK-MEL-5 melanoma
HCT-15 colon = test system: HCT-15 colon
OVCAR-5 ovarian = test system: OVCAR-5 ovarian
MDA-MB-231 breast = test system: MDA-MB-231 breast
CCRF-CEM leukemia = test system: CCRF-CEM leukemia
UACC-62 melanoma = test system: UACC-62 melanoma
M14 melanoma = test system: M14 melanoma
786-0 renal = test system: 786-0 renal
SN12C renal = test system: SN12C renal
PC-3 prostate = test system: PC-3 prostate
K-562 leukemia = test system: K-562 leukemia
NCI-H226 lung = test system: NCI-H226 lung
HS 578T breast = test system: HS 578T breast
ACHN renal = test system: ACHN renal
T-47D breast = test system: T-47D breast
HCC-2998 colon = test system: HCC-2998 colon
SNB-75 CNS = test system: SNB-75 CNS
EKVX NSCLC = test system: EKVX NSCLC
SF-268 CNS = test system: SF-268 CNS

c1ccc(CC(Cc2ccccc2)C2=NCCCN2)cc1
GI50 (RXF 393 renal): 2.82 µM | TGI (RXF 393 renal): > 100 µM | GI50 (MOLT-4 leukemia): 3.56 µM | TGI (MOLT-4 leukemia): 23.2 µM | GI50 (LOX IMVI melanoma): 3.71 µM | TGI (LOX IMVI melanoma): 23.6 µM | GI50 (SW-620 colon): 3.94 µM | TGI (SW-620 colon): > 100 µM | GI50 (NCI-H23 lung): 3.48 µM | TGI (NCI-H23 lung): > 100 µM | GI50 (SNB-19 CNS): 3.49 µM | TGI (SNB-19 CNS): > 100 µM | GI50 (OVCAR-4 ovarian): 3.93 µM | TGI (OVCAR-4 ovarian): > 100 µM | GI50 (HOP-92 NSCLC): 4.52 µM | TGI (HOP-92 NSCLC): 64.6 µM | GI50 (MCF7 breast): 3.57 µM | TGI (MCF7 breast): > 100 µM | GI50 (SK-MEL-5 melanoma): 2.73 µM | TGI (SK-MEL-5 melanoma): 9.52 µM | GI50 (HCT-15 colon): 3.44 µM | TGI (HCT-15 colon): > 100 µM | GI50 (OVCAR-5 ovarian): 5.95 µM | TGI (OVCAR-5 ovarian): > 100 µM | GI50 (MDA-MB-231 breast): 5.37 µM | TGI (MDA-MB-231 breast): > 100 µM | GI50 (CCRF-CEM leukemia): 3.12 µM | TGI (CCRF-CEM leukemia): 93.3 µM | GI50 (UACC-62 melanoma): 4.22 µM | TGI (UACC-62 melanoma): > 100 µM | GI50 (M14 melanoma): 3.17 µM | TGI (M14 melanoma): > 100 µM | GI50 (786-0 renal): 4.26 µM | TGI (786-0 renal): > 100 µM | GI50 (SN12C renal): 4.18 µM | TGI (SN12C renal): > 100 µM | GI50 (PC-3 prostate): 3.87 µM | TGI (PC-3 prostate): > 100 µM | GI50 (K-562 leukemia): 4.04 µM | TGI (K-562 leukemia): > 100 µM | GI50 (NCI-H226 lung): 2.48 µM | TGI (NCI-H226 lung): 7.47 µM | GI50 (HS 578T breast): 4.07 µM | TGI (HS 578T breast): > 100 µM | GI50 (ACHN renal): 7.95 µM | TGI (ACHN renal): > 100 µM | GI50 (T-47D breast): 30.8 µM | TGI (T-47D breast): > 100 µM | GI50 (HCC-2998 colon): 3.08 µM | TGI (HCC-2998 colon): 9.35 µM | GI50 (SNB-75 CNS): 7.8 µM | TGI (SNB-75 CNS): > 100 µM | GI50 (EKVX NSCLC): 6.96 µM | TGI (EKVX NSCLC): > 100 µM | GI50 (SF-268 CNS): 5.25 µM
